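Test compounds were applied to cells in 96-well plates for 48 hours at 5 doses. GI50 = concentration required for 50% inhibition of growth.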 Calls of active or inactive are those of the source. Rule as the data show it: active = GI50 up to about 1.1 µM and inactive = higher.
How the values were obtained:
Experiment in all cases: growth of human tumour cells (NCI), 48 h
[1] = tested on: HT-29
[2] = tested on: OVCAR-3
[3] = tested on: NCI-H23
[4] = tested on: COLO 205
[5] = tested on: SNB-78
[6] = tested on: K562
[7] = tested on: NCI-H522
[8] = tested on: A549
[9] = tested on: NCI-H460
[10] = tested on: IGROV-1
[11] = tested on: UO-31
[12] = tested on: OVCAR-4
[13] = tested on: Hs-578T
[14] = tested on: A498
[15] = tested on: MDA-MB-435
[16] = tested on: HCC 2998
[17] = tested on: UACC-257
[18] = tested on: SNB-19
[19] = tested on: PC-3
[20] = tested on: DU-145

SMILES: COC(=O)CCC(=O)N1Cc2cc(C)ccc2N(C(=O)CCC(=O)OC)Cc2cc(C)ccc21
- GI50 [1]: > 100 µM (inactive)
- GI50 [2]: > 100 µM (inactive)
- GI50 [3]: > 100 µM (inactive)
- GI50 [4]: > 100 µM (inactive)
- GI50 [5]: > 100 µM (inactive)
- GI50 [6]: > 100 µM (inactive)
- GI50 [7]: > 100 µM (inactive)
- GI50 [8]: > 100 µM (inactive)
- GI50 [9]: > 100 µM (inactive)
- GI50 [10]: > 100 µM (inactive)
- GI50 [11]: > 100 µM (inactive)
- GI50 [12]: > 100 µM (inactive)

SMILES: CC(=O)OC/C=C(\C)CCC(Br)C(C)(C)Br (stereo not given)
- GI50 [1]: > 10 µM (inactive)
- GI50 [13]: > 10 µM (inactive)
- GI50 [14]: > 10 µM (inactive)
- GI50 [2]: > 10 µM (inactive)
- GI50 [3]: > 10 µM (inactive)
- GI50 [15]: > 10 µM (inactive)
- GI50 [16]: > 10 µM (inactive)
- GI50 [17]: > 10 µM (inactive)
- GI50 [4]: > 10 µM (inactive)
- GI50 [6]: > 10 µM (inactive)
- GI50 [7]: > 10 µM (inactive)
- GI50 [18]: > 10 µM (inactive)
- GI50 [8]: > 10 µM (inactive)
- GI50 [19]: > 10 µM (inactive)
- GI50 [20]: > 10 µM (inactive)
- GI50 [9]: > 10 µM (inactive)
- GI50 [10]: > 10 µM (inactive)
- GI50 [11]: 0.001 µM (active)
- GI50 [12]: > 10 µM (inactive)

SMILES: CCOC(=O)CCC(NC(=O)c1ccc(Oc2nc3c(N)cc(C(F)(F)F)cc3nc2-c2ccccc2)cc1)C(=O)OCC (stereo not given)
- GI50 [1]: 2.43 µM (inactive)
- GI50 [13]: 11.7 µM (inactive)
- GI50 [14]: > 35.5 µM (inactive)
- GI50 [2]: 3.53 µM (inactive)
- GI50 [3]: 21.3 µM (inactive)
- GI50 [15]: 59.8 µM (inactive)
- GI50 [16]: 67.8 µM (inactive)
- GI50 [17]: > 27.9 µM (inactive)
- GI50 [4]: > 100 µM (inactive)
- GI50 [6]: > 100 µM (inactive)
- GI50 [7]: 5.96 µM (inactive)
- GI50 [18]: 30.5 µM (inactive)
- GI50 [8]: 7.78 µM (inactive)
- GI50 [19]: 8.32 µM (inactive)
- GI50 [20]: 17.3 µM (inactive)
- GI50 [9]: 54.3 µM (inactive)
- GI50 [10]: 33.4 µM (inactive)
- GI50 [11]: 70 µM (inactive)
- GI50 [12]: 19.2 µM (inactive)

SMILES: Cc1cc(=O)oc2c(CN(CCCl)CCCl)c(O)ccc12
- GI50 [1]: 22.7 µM (inactive)
- GI50 [13]: 72.3 µM (inactive)
- GI50 [14]: 62.7 µM (inactive)
- GI50 [2]: 80.5 µM (inactive)
- GI50 [3]: 43.3 µM (inactive)
- GI50 [15]: 57.3 µM (inactive)
- GI50 [16]: 28.4 µM (inactive)
- GI50 [17]: > 100 µM (inactive)
- GI50 [4]: 18 µM (inactive)
- GI50 [6]: 34.5 µM (inactive)
- GI50 [7]: 14.5 µM (inactive)
- GI50 [18]: 24.3 µM (inactive)
- GI50 [8]: 27.5 µM (inactive)
- GI50 [19]: 44 µM (inactive)
- GI50 [20]: 36.5 µM (inactive)
- GI50 [9]: 17.4 µM (inactive)
- GI50 [10]: 55.7 µM (inactive)
- GI50 [11]: 41.8 µM (inactive)
- GI50 [12]: > 100 µM (inactive)

SMILES: C=CC(C)(C)n1cc(C2=C(O)C(=O)C(c3cn(C(C)(C)C=C)c4ccccc34)=C(OC(C)=O)C2=O)c2ccccc21
- GI50 [1]: 0.807 µM (active)
- GI50 [13]: 0.646 µM (active)
- GI50 [14]: 0.853 µM (active)
- GI50 [2]: 1.04 µM (active)
- GI50 [3]: 0.692 µM (active)
- GI50 [15]: 0.513 µM (active)
- GI50 [16]: 0.908 µM (active)
- GI50 [17]: 0.64 µM (active)
- GI50 [4]: 1.67 µM (inactive)
- GI50 [6]: 0.424 µM (active)
- GI50 [7]: 1.55 µM (inactive)
- GI50 [18]: 1.04 µM (active)
- GI50 [8]: 0.426 µM (active)
- GI50 [19]: 0.75 µM (active)
- GI50 [20]: 1.04 µM (active)
- GI50 [9]: 0.592 µM (active)
- GI50 [10]: 0.435 µM (active)
- GI50 [11]: 1.07 µM (active)
- GI50 [12]: 1.32 µM (inactive)

SMILES: CN(C)CCn1c(=O)c2ccc(NCCNCCO)c3c(=O)c4ccccc4n(c1=O)c23
- GI50 [1]: 0.0853 µM (active)
- GI50 [13]: 0.23 µM (active)
- GI50 [14]: 0.106 µM (active)
- GI50 [2]: 0.288 µM (active)
- GI50 [3]: 0.0342 µM (active)
- GI50 [15]: 0.228 µM (active)
- GI50 [16]: < 0.0329 µM (active)
- GI50 [17]: 0.368 µM (active)
- GI50 [4]: 0.0703 µM (active)
- GI50 [6]: 0.0245 µM (active)
- GI50 [7]: 0.0581 µM (active)
- GI50 [18]: 0.182 µM (active)
- GI50 [8]: < 0.0121 µM (active)
- GI50 [19]: 0.182 µM (active)
- GI50 [20]: 0.0217 µM (active)
- GI50 [9]: < 0.01 µM (active)
- GI50 [10]: 0.0596 µM (active)
- GI50 [11]: 0.126 µM (active)
- GI50 [12]: 0.514 µM (active)

SMILES: CC(=O)NC1C(OCc2ccccc2)OC(CO)C(O)C1OC(C)C(=O)NC(C)C(=O)NC(CCC(=O)NCCCCNc1c2ccccc2nc2cccc([N+](=O)[O-])c12)C(N)=O (stereo not given)
- GI50 [1]: 0.00514 µM (active)
- GI50 [13]: 0.171 µM (active)
- GI50 [14]: 0.131 µM (active)
- GI50 [2]: 0.139 µM (active)
- GI50 [3]: 0.0457 µM (active)
- GI50 [15]: 0.0325 µM (active)
- GI50 [16]: 0.013 µM (active)
- GI50 [17]: 0.121 µM (active)
- GI50 [4]: 0.0327 µM (active)
- GI50 [6]: 0.0106 µM (active)
- GI50 [7]: 0.0705 µM (active)
- GI50 [18]: 0.021 µM (active)
- GI50 [8]: 0.0404 µM (active)
- GI50 [19]: 0.0989 µM (active)
- GI50 [20]: 0.00887 µM (active)
- GI50 [9]: 0.00445 µM (active)
- GI50 [10]: 0.24 µM (active)
- GI50 [11]: 0.0738 µM (active)
- GI50 [12]: 0.242 µM (active)

SMILES: [O-][n+]1onc2c1-c1nonc1CC2
- GI50 [1]: 35.5 µM (inactive)
- GI50 [13]: 26.7 µM (inactive)
- GI50 [14]: 31.7 µM (inactive)
- GI50 [2]: 10.6 µM (inactive)
- GI50 [3]: 23.8 µM (inactive)
- GI50 [15]: 39.1 µM (inactive)
- GI50 [16]: 77.1 µM (inactive)
- GI50 [17]: 18.5 µM (inactive)
- GI50 [4]: 48.5 µM (inactive)
- GI50 [6]: 56 µM (inactive)
- GI50 [7]: 31 µM (inactive)
- GI50 [18]: > 100 µM (inactive)
- GI50 [8]: 72.1 µM (inactive)
- GI50 [19]: 26.5 µM (inactive)
- GI50 [20]: 51.2 µM (inactive)
- GI50 [9]: 54.2 µM (inactive)
- GI50 [10]: 38.8 µM (inactive)
- GI50 [11]: 48.6 µM (inactive)
- GI50 [12]: 30.3 µM (inactive)

Reference: ChEMBL document CHEMBL1201862, “PubChem BioAssay data set” (2004)
